Measurements as given in patent US20250302882A1, “PHARMACEUTICAL COMPOSITION FOR PREVENTING OR TREATING NEURODEGENERATIVE DISEASE, CONTAINING, AS ACTIVE INGREDIENTS, CYCLODEXTRIN AND STEM CELLS IN WHICH VEGF IS OVEREXPRESSED” (KYUNGPOOK NATIONAL UNIVERSITY INDUSTRY-ACADEMIC COOPERATION …, priority 2017, published 2025).

How the values were obtained:
[1] = introduced into SVZ; Application No. 10-2017-0015676; cited from earlier work
NP-C mice [2] = assay: Inflammatory response of the cerebellum by GFAP (astrocyte) staining; type: in vivo; conditions: 10-week-old
Method: (§1) Administration of cyclodextrin (Sigma, H107) and VEGF-overexpressed neural stem cells was performed on a schedule as illustrated in FIG. 1. Specifically, NP-C mice or VEGFNP-C mice were subcutaneously injected with cyclodextrin by 4000 mg/kg from 1 week old. When the NP-C mice injected with the cyclodextrin were 4-week-old, a cannula was mounted in a subventricular zone (SVZ) for combined injection into the SVZ of the VEGF-overexpressed neural stem cells, and the VEGF-overexpressed neural stem cells (to 1×10^6 cell/3 ul) were injected into the SVZ twice a week. A cell injection rate was implanted at a flow rate of 0.3 μl/min.
(§2) The brain tissue (cortex or cerebellum) of a mouse was cut to a thickness of 50 μm using vibratome, and then cultured with anti-GFAP (rabbit, 1:500, DAKO) and anti-Calbindin (rabbit, 1:100, milipore). In addition, filipin staining (Polysciences, Inc.) was performed on tissues of each organ from the mouse to confirm the accumulation degree of cholesterol. Cortex, cerebellum, liver, lung, kidney, and spleen sites were analyzed using a laser scanning confocal microscope or an Olympus BX51 microscope equipped with Fluoview SV1000 imaging software (Olympus FV1000, Japan). A percentage of an area of a stained area to an area of total tissues was quantified using Metamorph software (Molecular Devices). […]

NP-C mice [3] = assay: Inflammatory response of the cortex by GFAP (astrocyte) staining; type: in vivo; conditions: 10-week-old
Method: as §1, §2

NP-C mice [4] = assay: Mobility by Rota-rod and Beam tests; type: in vivo; conditions: for each week age
Method: as §1
In order to confirm the mobility of a mouse in each test group, Rota-rod and Beam tests were performed. In the Rota-rod test (Ugo Basile, Comerio, VA, Italy), a Rota-rod movement was performed three times or more at a rotation rate of 4 rpm using a machine equipped with a rod of a diameter of 3 cm which was appropriately processed for providing a grip, and then an endurance time of a test animal was measured in units of second and an average value thereof was recorded. […] In the Beam test, a mouse was placed on a starting point of a rod of a width of 6 mm or 12 mm and then a time taken to move to an end point was measured. […]

NP-C mice [5] = assay: Cholesterol accumulation by Amplex red assay and Filipin staining; type: in vivo; conditions: VEGFNP-C mice; 10-week-old; cortex, cerebellum and organs
Method: as §1, §2

NP-C mice [6] = assay: Survival rate of NP-C mice; type: in vivo; conditions: VEGFNP-C mice (brain cell-specific VEGF-overexpressed NP-C mice); cyclodextrin 4000 mg/kg once a week s.c.; compared to NP-C mice given cyclodextrin alone
Description: (§3) In Balb/C (Orient, wild type), NPC mutant mice in which an NPC1 gene is deleted (RIKEN, received from Japan, NP-C mice; a weight was smaller than that of normal mice with the same week old, a serious mobility loss was shown from 4 to 6 week old to show tremors and seizures of the limbs, and a lifespan was approximately 9 to 10 weeks), and brain cell-specific VEGF-overexpressed NP-C mice (VEGFNP-C mice; produced through mating of VEGFtg mice overexpressing VEGF in a brain cell-specific promoter (received from University of Heidelberg, Germany, Yaoming Wang et al., (2005)) and NP-C mice, a lifespan was approximately 9 to 10 weeks like the NP-C mice, and brain inflammation and lipid accumulation were alleviated as compared to the NP-C mice), systems thereof were kept by genotyping through PCR. The mice were disposed in a test group by using a block randomization method. In order to eliminate prejudice, […]. All mice tests were approved by Kyungpook National University Institutional Animal Care and Use Committee (IACUC).
(§4) Administration of cyclodextrin (Sigma, H107) and VEGF-overexpressed neural stem cells was performed on a schedule as illustrated in FIG. 1. Specifically, NP-C mice or VEGFNP-C mice were subcutaneously injected with cyclodextrin by 4000 mg/kg from 1 week old. […]

NP-C mice [7] = assay: Lipid accumulation (sphingosine, sphingomyelin) in cortex, cerebellum and organs, UPLC; type: in vivo; conditions: VEGFNP-C mice, 10-week-old
Method: as §1
The cortex, the cerebellum, and organs (liver, lung, kidney, spleen, etc.) of each mouse were extracted, added with a homogeneous buffer solution containing 50 mM HEPES (Invitrogen), a 150 mM sodium chloride solution (NaCl) (Sigma), 0.2% Igepal CA-630 (Sigma), and a protease inhibitor (Milipore), homogenized using a homogenizer, and then centrifuged at 13,000 rpm for 10 minutes. After 10 minutes, additional centrifugation was performed at 13,000 rpm for 30 minutes. […] A dry lipid extract obtained above was resuspended in 0.2% Igepal CA-630 (Sigma), and then the concentration of each lipid was measured using a UPLC system. […]

NP-C mice [8] = assay: Change in weight of NP-C mice; type: in vivo; conditions: VEGFNP-C mice; cyclodextrin 4000 mg/kg once a week s.c.; compared to NP-C mice given cyclodextrin alone
Description: as §3, §4

NP-C mice [9] = assay: Cerebellar neural cells by Calbindin staining (Purkinje neuron); type: in vivo; conditions: VEGFNP-C mice; 10-week-old
Method: as §1, §2

Substance | medicinal effect by improvement of an SVZ environment [1] | inflammatory response (GFAP: astrocyte) in the cerebellum (NP-C mice [2]; NP-C mice) | inflammatory response (GFAP: astrocyte) in the cerebellum (NP-C mice [2]; VEGFNP-C mice) | inflammatory response (GFAP: astrocyte) in the cortex (NP-C mice [3]; NP-C mice) | inflammatory response (GFAP: astrocyte) in the cortex (NP-C mice [3]; VEGFNP-C mice) | mobility (Rota-rod and Beam tests) (NP-C mice [4]; NP-C mice) | mobility (Rota-rod and Beam tests) (NP-C mice [4]; VEGFNP-C mice) | accumulation of cholesterol (NP-C mice [5]) | survival rate (NP-C mice [6]) | sphingosine accumulated in the cortex and the cerebellum (NP-C mice [7]) | sphingomyelin accumulation (NP-C mice [7]; liver, lung, kidney, spleen, cortex and cerebellum) | weight (NP-C mice [8]) | reduced neural cells (Calbindin: Purkinje neuron) in the cerebellum (NP-C mice [9])
VEGF | could not be achieved |  |  |  |  |  |  |  |  |  |  |  | 
cyclodextrin |  | alleviated to a certain level | more effectively alleviated | somewhat alleviated | more effectively improved | improved mobility compared to NP-C mice | most effective | more reduced | significantly increased | most effectively reduced | most effectively reduced | significantly increased | most efficiently increased
